Consider five compounds from patent publication US5384412A, “Saccharide intermediates in the formation of the calicheamicin and esperamicin oligosaccharides” (priority 1992, dated 1995).

Like-named read-outs stand apart in the source and are kept apart here.

Test [1] deals with 93 base-pair Sal I - Sph I double-stranded DNA fragment of pBR322. The experiment in a line: DNase I footprinting of oligosaccharides on labeled DNA fragment. It counts as binding. Particulars: for protection against DNase I cleavage (footprinting): pre-incubated with DNA at 37° C. for 30 minutes, autoradiography; for DNA binding selectivity from footprinting: footprinting studies, O-methyl glycoside. The source says: Footprinting studies the O-methyl glycosides of saccharide Compounds 167a, 100, its C-4 epimer (100a) and a similar compound lacking the iodo group in Ring C, 100b, shown below, were designed to probe these questions.
The oligosaccharides 167a, 100, 100a, and 100b were obtained by chemical synthesis following procedures similar to those discussed before. The 93 base-pair Sal I - Sph I double-stranded DNA fragment of pBR322 was obtained enzymatically and was [5'-^32 P]-labeled on one strand. pBR322 DNA was cleaved at the unique Sal I site, dephosphorylated using calf intestine phosphatase, 5'-^32 P]-phosphorylated using T4 polynucleotide kinase and [g-^32 P ATP (4.5 ^m Ci/pmol), and cleaved again at the unique Sph I site. These precursors generated a 93 base-pair double-stranded fragment, [5'-^32 P]-labeled at the Sal I end, which was purified by gel electrophoresis in a nondenaturing 10 percent polyacrylamide gel and subsequent column chromatography on Sephadex G-25. The oligosaccharides were pre-incubated with the DNA fragment at 37° C. for 30 minutes and DNase I was added to cleave the DNA and generate footprinting patterns by autoradiography.
The degree of protection against DNase I digestion offered by both the natural and unnatural stereoisomers was determined by comparing the amount of radioactivity in adjacent lanes along the electrophoresis gel. The protected regions coincided only roughly with calicheamicin γ1^I recognition sequences [(a) Zein et al., Science, 240:1198 (1988); (b) Zein et al., Science, 244:697 (1989); (c) Ding et al., J. Am. Chem. Soc., 113:6617 (1991)], Schreiber [Hawley et al., Proc. Natl. Acad. Sci. U.S.A., 86:1105 (1989)] and observed calicheamicin γ1^I cleavage sites.

For test [2], the system named is duplex DNA. Particulars: cited from earlier work.
The subject of test [3] is DNA. Particulars: Zein et al., Science, 244:697 (1989), cited from earlier work.

For the compound `CCN[C@H]1CO[C@@H](O[C@H]2[C@H](OC)O[C@H](C)[C@H](NO[C@H]3C[C@H](O)[C@H](SC(=O)c4c(C)c(I)c(O[C@@H]5O[C@@H](C)[C@H](O)[C@@H](OC)[C@H]5O)c(OC)c4OC)[C@@H](C)O3)[C@@H]2O)C[C@@H]1OC` [Compound 100a], in test [1], the “protection against DNase I cleavage (footprinting)” value (shortened to “protection against DNase I cleavage”) was “no protection at the same concentrations”.

For `CCN[C@H]1CO[C@@H](O[C@H]2[C@H](OC)O[C@H](C)[C@@H](NO[C@H]3C[C@H](O)[C@H](SC(=O)c4c(C)c(I)c(O[C@@H]5O[C@@H](C)[C@H](O)[C@@H](OC)[C@H]5O)c(OC)c4OC)[C@@H](C)O3)[C@@H]2O)C[C@@H]1OC` [Compound 100], in test [1], the “DNA binding selectivity from footprinting” value is on record as “selective binding of oligosaccharide Compound 100 with specific base sequences of DNA”; the “protection against DNase I cleavage” value was “concentration-dependent protection, presumably due to binding, in the region of three calicheamicin γ1^I binding sites: CTCT, TCCT and AGGA”. Also, the “DNA binding selectivity from footprinting” value in test [1] (listed as calicheamicin oligosaccharide glycoside) is recorded as “binds specifically to DNA, the preferred saccharide binding sites do not coincide precisely with those observed for intact calicheamicin”. In addition, in test [2] (previous studies by the Ellestad, Schreiber, Kahne and Danishefsky groups), the “interaction with duplex DNA” value was “selective interactions of the calicheamicin γ1^I oligosaccharide with duplex DNA along specific sequences within the minor groove”.

`CCN[C@H]1CO[C@@H](O[C@H]2[C@H](O[C@H]3C#CC=CC#C[C@@]4(O)CC(=O)C(NC(=O)OC)=C3/C4=C\CSSSC)O[C@H](C)[C@@H](NO[C@H]3C[C@H](O)[C@H](SC(=O)c4c(C)c(I)c(O[C@@H]5O[C@@H](C)[C@H](O)[C@@H](OC)[C@H]5O)c(OC)c4OC)[C@@H](C)O3)[C@@H]2O)C[C@@H]1OC` (stereo in doubt) [calicheamicin γ1^I, reference compound]: the “sequence specificity of DNA cleaving” value in test [3] is recorded as “double DNA strand cuts at specific sequences”. Besides, the DNA binding site result in test [2] (double stranded DNA minor groove) is given as “anchors itself on the 5' side of a TCCT sequence”.

As to `CCN[C@H]1CO[C@@H](O[C@H]2[C@H](OC)O[C@H](C)[C@@H](NO[C@H]3C[C@H](O)[C@H](SC(=O)c4c(C)cc(O[C@@H]5O[C@@H](C)[C@H](O)[C@@H](OC)[C@H]5O)c(OC)c4OC)[C@@H](C)O3)[C@@H]2O)C[C@@H]1OC` [Compound 100b], the “protection against DNase I cleavage” value in test [1] was “lack of protection under the same conditions”.

Turning to esperamicin, the results for the “sequence specificity of DNA cleaving” value in test [3] and in test [3] (listed as Esperamicins) were “no strong sequence specificity in DNA cleaving” and “less sequence specific”, respectively.
